From US20240059961A1, “BIOCOMPATIBLE OXYGEN-SENSITIVE MATERIALS” (Promega Corporation, priority 2022, published 2024)

How the values were obtained:
Format in all cases: cell-based
C2C12 cells = experiment: Cell attachment / cellular coverage on protein-coated siloxane surface; details: for coating concentration sufficient to enhance the adhesion of cells to the surface: C2C12 cells on coated siloxane surface; for cellular coverage on the substrate: C2C12 seeded at 60,000 cells/cm^2, assessed the following day, covalent or passive coating, 100-3,000 ug mL-1
Description: After silane film fabrication, the film surface was further modified with a biomacromolecule coating to enhance cell attachment. Biomacromolecules assessed for cell attachment include collagen type I (rat tail, acid extracted) and laminin. […] Passive coating of the substrate is achieved by incubating a solution of the biomacromolecule (e.g., 300 ug mL-1 collagen type I in 17 mM acetic acid) on the film for either 1 hour at room temperature or overnight at 4° C. Excess biomacromolecule was removed by washing the substrate with phosphate buffered saline (PBS).
The surface was coated with Collagen I and Laminin, either covalently or passively. Covalent conjugation is achieved with sulfo-SANPAH conjugation method, and passive coating is achieved by incubating the siloxane surface in the presence of the protein for 1 hour at room temperature. The protein was titrated from 100 ug mL-1-3,000 ug mL-1. C2C12 cells were seeded on the coated surface at 60,000 cells/cm^2, and cellular coverage on the substrate was assessed the following day.

HCT-116 cells = experiment: Oxygen consumption of HCT-116 cells on the oxygen sensing film
Description: To determine the minimum number of cells necessary to observe a signal change, HCT-116 cells were titrated from 15k-120k cells/well (95k-750k cells/cm^2). The following day, the culture medium of the cells was replaced with fresh DMEM (high glucose, without phenol red), and the ratiometric fluorescence of 650/490 nm was recorded over time in a plate reader with temperature control at 37° C. […] Further experiments using drug treatments were carried out at 250k cells/cm^2.
HCT-116 cells were seeded onto the oxygen sensing surface functionalized with 300 ug mL-1 Collagen I at 40,000 cells/well of a half-area 96-well plate (250,000 cells/cm^2). The following day, the culture medium was replaced with medium containing 2-[[4-(trifluoromethoxy)phenyl]hydrazinylidene]propanedinitrile (FCCP), an uncoupler of oxidative phosphorylation in mitochondria that increases oxygen consumption. […] HCT-116 cells were additionally treated with rotenone at 2 uM, which is an inhibitor of oxidative phosphorylation.

HEP-G2 = experiment: Oxygen consumption of HEP-G2 cells on the oxygen sensing film; details: HEP-G2, drug treatment
PC-3 = experiment: Oxygen consumption of PC-3 cells on the oxygen sensing film; details: PC-3, drug treatment

Molecule | coating concentration sufficient to enhance the adhesion of cells to the surface (C2C12 cells) [µg/mL] | cellular coverage on the substrate (C2C12 cells) | cell attachment (C2C12 cells; passive coating of the film) | oxygen consumption (HCT-116 cells; HCT-116, rotenone at 2 uM) | oxygen consumption (HEP-G2) | oxygen consumption (PC-3) | oxygen consumption (HCT-116 cells; HCT-116, 40,000 cells/well, FCCP treatment, concentration up to 4 uM)
Collagen I: collagen type I (rat tail, acid extracted), biomacromolecule coating to enhance cell attachment | 300 | enhanced cellular coverage | sufficient for cell attachment | – | – | – | –
Laminin | 300 | enhanced cellular coverage | – | – | – | – | –
C=C(C)[C@H]1Cc2c(ccc3c2O[C@@H]2COc4cc(OC)c(OC)cc4[C@@H]2C3=O)O1 [rotenone] | – | – | – | inhibited oxygen consumption | decreased oxygen consumption | decreased oxygen consumption | –
N#CC(C#N)=NNc1ccc(OC(F)(F)F)cc1 [FCCP, 2-[[4-(trifluoromethoxy)phenyl]hydrazinylidene]propanedinitrile] | – | – | – | – | increased oxygen consumption | increased oxygen consumption | oxygen consumption increased with increasing FCCP concentration up to 4 uM
